# From patent publication US8962608B2, “Cycloalkylnitrile pyrazole carboxamides as janus kinase inhibitors” (Merck Sharp & Dohme Corp., priority 2011, dated 2015)
# Molecular target: JAK2 (recombinant purified GST-tagged catalytic domain) (Homo sapiens (Human), UniProt O60674)
# Assay: biochemical
# 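Further: biochemical JAK kinase assay with HTRF detection.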
# Sequence of JAK2 (recombinant purified GST-tagged catalytic domain) (O60674 849-1124): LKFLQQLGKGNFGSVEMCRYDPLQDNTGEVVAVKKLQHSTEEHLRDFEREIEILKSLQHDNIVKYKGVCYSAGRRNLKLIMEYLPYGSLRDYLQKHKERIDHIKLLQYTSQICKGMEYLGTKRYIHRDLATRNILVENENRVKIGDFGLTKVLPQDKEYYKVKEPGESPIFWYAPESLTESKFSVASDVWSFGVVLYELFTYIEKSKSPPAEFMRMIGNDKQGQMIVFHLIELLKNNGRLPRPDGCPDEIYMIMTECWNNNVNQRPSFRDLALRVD
row,SMILES,IC50 [nM]
1,"N#Cc1cncc(Nc2nn([C@H]3CCCC[C@@H]3C#N)cc2C(N)=O)c1 (single isomer, unassigned) [Example 17-74, 1-[(1R,2R or 1S,2S)-2-cyanocyclohexyl]-3-[(5-cyanopyridin-3-yl)amino]-1H-pyrazole-4-carboxamide]",49
2,"CC(C)(c1ccc(Nc2nn([C@H]3CCCC[C@@H]3C#N)cc2C(N)=O)cc1F)[C@@H](O)C(F)(F)F (single isomer, unassigned) [Example 17-33, 1-[(1S,2S or 1R,2R)-2-cyanocyclohexyl]-3-({3-fluoro-4-[(2R or 2S)-3,3,3-trifluoro-2-hydroxy-1,1-dimethylpropyl]phenyl}amino)-1H-pyrazole-4-carboxamide]",4
3,"N#C[C@H]1CCCC[C@@H]1n1cc(C(N)=O)c(Nc2cnc3cc(Cl)ccc3c2)n1 (single isomer, unassigned) [Example 17-61, 3-[(7-chloroquinolin-3-yl)amino]-1-[(1S,2S or 1R,2R)-2-cyanocyclohexyl]-1H-pyrazole-4-carboxamide]",21
4,"N#C[C@H]1C[C@@H](NCC(F)F)CCC1n1cc(C(N)=O)c(Nc2ccc(S(=O)(=O)C(F)(F)F)cc2)n1 (mixture of isomers) [Example 27-14, 1-{(1S,2S,4S and 1R,2R,4R)-2-cyano-4-[(2,2-difluoroethyl)amino]cyclohexyl}-3-({4-[(trifluoromethyl)sulfonyl]phenyl)amino)-1H-pyrazole-4-carboxamide]",11
5,"N#C[C@@H]1CCCCC1n1cc(C(N)=O)c(Nc2ccccc2)n1 (mixture of isomers) [Example 1-3, 1-[(1S,2R and 1R,2S)-2-cyanocyclohexyl]-3-(phenylamino)-1H-pyrazole-4-carboxamide]",138
6,"N#C[C@H]1C[C@@H](OCC2CC2)CC[C@@H]1n1cc(C(N)=O)c(Nc2ccc(F)cc2)n1 (single isomer, unassigned) [Example 26-9, 1-[(1S,2S,4S or 1R,2R,4R)-2-cyano-4-(cyclopropylmethoxy)cyclohexyl]-3-[(4-fluorophenyl)amino]-1H-pyrazole-4-carboxamide]",33
7,"N#C[C@H]1CCCC[C@@H]1n1cc(C(N)=O)c(Nc2ccc(C=O)cc2)n1 (single isomer, unassigned) [Example 17-25, 1-[(1S,2S or 1R,2R)-2-cyanocyclohexyl]-3-[(4-formylphenyl)amino]-1H-pyrazole-4-carboxamide]",3
8,"N#C[C@H]1C[C@@H](NCC(F)(F)F)CCC1n1cc(C(N)=O)c(Nc2ccc(S(=O)(=O)C(F)(F)F)cc2)n1 (mixture of isomers) [Example 27-11, 1-{(1S,2S,4S and 1R,2R,4R)-2-cyano-4-[(2,2,2-trifluoroethyl)amino]cyclohexyl}-3-({4-[(trifluoromethyl)sulfonyl]phenyl}amino)-1H-pyrazole-4-carboxamide]",6
9,"N#C[C@H]1C[C@H](O)CC[C@@H]1n1cc(C(N)=O)c(Nc2ccc(Cl)nc2)n1 (single isomer, unassigned) [Example 25-12, 3-[(6-chloropyridin-3-yl)amino]-1-[(1S,2S,4R or 1R,2R,4S)-2-cyano-4-hydroxycyclohexyl]-1H-pyrazole-4-carboxamide]",20

# Next, values leading:
row,IC50 [nM],SMILES
1,21,"CC1(C)CN([C@H]2CC[C@H](n3cc(C(N)=O)c(Nc4ccc(Cl)cc4)n3)[C@@H](C#N)C2)C1 (single isomer, unassigned) [Example 28-144, 3-[(4-chlorophenyl)amino]-1-[(1S,2S,4S or 1R,2R,4R)-2-cyano-4-(3,3-dimethylazetidin-1-yl)cyclohexyl]-1H-pyrazole-4-carboxamide]"
2,43,"CC(C)(C)OC(=O)N[C@@H]1CC[C@H](C#N)C(n2cc(C(N)=O)c(Nc3ccc(F)cc3)n2)C1 (single isomer, unassigned) [Example 44-1, tert-Butyl[(1R,3S,4S or 1S,3R,4R)-3-{4-carbamoyl-3-[(4-fluorophenyl)amino]-1H-pyrazol-1-yl}-4-cyanocyclohexyl]carbamate]"
3,7,"CN([C@H]1CCC(n2cc(C(N)=O)c(Nc3ccc(Cl)cc3)n2)[C@@H](C#N)C1)C1(C)COC1 (single isomer, unassigned) [Example 28-232, 3-[(4-chlorophenyl)amino]-1-{(1S,2S,4S or 1R,2R,4R)-2-cyano-4-[methyl(3-methyloxetan-3-yl)amino]cyclohexyl}-1H-pyrazole-4-carboxamide]"
4,11,"CC1(C)CN([C@@H]2CC[C@H](n3cc(C(N)=O)c(Nc4ccc([C@H](O)C(F)(F)F)cc4)n3)[C@@H](C#N)C2)C1 (single isomer, unassigned) [Example 28-44, 1-[(1S,2S,4R or 1R,2R,4S)-2-cyano-4-(3,3-dimethylazetidin-1-yl)cyclohexyl]-3-({4-[(1S or 1R)-2,2,2-trifluoro-1-hydroxyethyl]phenyl}amino)-1H-pyrazole-4-carboxamide]"
5,990,"CC(C)(C)OC(=O)N[C@@H]1CC[C@H](C#N)C(n2cc(C(N)=O)c(Nc3ccc(F)cc3)n2)C1 (single isomer, unassigned) [Example 44-2, tert-Butyl[(1R,3S,4S or 1S,3R,4R)-3-{4-carbamoyl-3-[(4-fluorophenyl)amino]-1H-pyrazol-1-yl}-4-cyanocyclohexyl]carbamate]"
6,145,"CN(C)[C@H]1CC[C@H](n2cc(C(N)=O)c(Nc3ccc(C(F)(F)F)nc3)n2)[C@@H](C#N)C1 (single isomer, unassigned) [Example 28-22, 1-[(1S,2S,4S or 1R,2R,4R)-2-cyano-4-(dimethylamino)cyclohexyl]-3-{[6-(trifluoromethyl)pyridin-3-yl]amino}-1H-pyrazole-4-carboxamide]"
7,22,"N#C[C@H]1C[C@@H](NC2CC2)CC[C@@H]1n1cc(C(N)=O)c(Nc2ccc(C(F)(F)F)cc2)n1 (single isomer, unassigned) [Example 28-137, 1-[(1S,2S,4S or 1R,2R,4R)-2-cyano-4-(cyclopropylamino)cyclohexyl]-3-{[4-(trifluoromethyl)phenyl]amino}-1H-pyrazole-4-carboxamide]"
8,35,"CC1(CN[C@H]2CC[C@H](n3cc(C(N)=O)c(Nc4ccc(C(F)(F)F)cc4)n3)[C@@H](C#N)C2)COC1 (single isomer, unassigned) [Example 28-26, 1-[(1S,2S,4S or 1R,2R,4R)-2-cyano-4-{[(3-methyloxetan-3-yl)methyl]amino}cyclohexyl]-3-{[4-(trifluoromethyl)phenyl]amino}-1H-pyrazole-4-carboxamide]"
9,18,"CN(C)[C@H]1CC[C@H](n2cc(C(N)=O)c(Nc3ccc(OC(F)(F)F)cc3)n2)[C@@H](C#N)C1 (single isomer, unassigned) [Example 28-86, 1-[(1S,2S,4S or 1R,2R,4R)-2-cyano-4-(dimethylamino)cyclohexyl]-3-{[4-(trifluoromethoxy)phenyl]amino}-1H-pyrazole-4-carboxamide]"
10,16,"N#C[C@H]1C[C@@H](N2CCC2)CC[C@@H]1n1cc(C(N)=O)c(Nc2ccc(C=O)cc2)n1 (single isomer, unassigned) [Example 28-66, 1-[(1S,2S,4S or 1R,2R,4R)-4-azetidin-1-yl-2-cyanocyclohexyl]-3-[(4-formylphenyl)amino]-1H-pyrazole-4-carboxamide]"
11,33,"N#C[C@H]1C[C@@H](NCC(F)F)CC[C@@H]1n1cc(C(N)=O)c(Nc2ccnc(F)c2)n1 (single isomer, unassigned) [Example 28-115, 1-{(1S,2S,4S or 1R,2R,4R)-2-cyano-4-[(2,2-difluoroethyl)amino]cyclohexyl}-3-[(2-fluoropyridin-4-yl)amino]-1H-pyrazole-4-carboxamide]"
12,78,"N#C[C@@H]1C[C@H](C(=O)NC2CCC2)CC[C@H]1n1cc(C(N)=O)c(Nc2ccc(Cl)cc2)n1 (single isomer, unassigned) [Example 35-11, 3-[(4-chlorophenyl)amino]-1-[(1R,2R,4R or 1S,2S,4S)-2-cyano-4-(cyclobutylcarbamoyl)cyclohexyl]-1H-pyrazole-4-carboxamide]"
13,400,"CN(C)[C@@H]1CC[C@@H](n2cc(C(N)=O)c(Nc3ccc(C(F)(F)F)nc3)n2)[C@H](C#N)C1 (single isomer, unassigned) [Example 28-18, 1-[(1R,2R,4R or 1S,2S,4S)-2-cyano-4-(dimethylamino)cyclohexyl]-3-{[6-(trifluoromethyl)pyridin-3-yl]amino}-1H-pyrazole-4-carboxamide]"
14,47,"CC1(CN[C@H]2CCC(n3cc(C(N)=O)c(Nc4ccc(Cl)cc4)n3)[C@@H](C#N)C2)COC1 (single isomer, unassigned) [Example 28-217, 3-[(4-chlorophenyl)amino]-1-[(1S,2S,4S or 1R,2R,4R)-2-cyano-4-{[(3-methyloxetan-3-yl)methyl]amino}cyclohexyl]-1H-pyrazole-4-carboxamide]"
15,28,"CC(C)(C)N[C@H]1CCC(n2cc(C(N)=O)c(Nc3ccccc3)n2)[C@@H](C#N)C1 (single isomer, unassigned) [Example 28-215, 1-[(1S,2S,4S or 1R,2R,4R)-4-(tert-butylamino)-2-cyanocyclohexyl]-3-(phenylamino)-1H-pyrazole-4-carboxamide]"
16,285,"CC1(C)CN([C@@H]2CC[C@H](n3cc(C(N)=O)c(Nc4ccc(C(F)(F)F)cc4)n3)[C@@H](C#N)C2)C1 (single isomer, unassigned) [Example 28-203, 1-[(1S,2S,4R or 1R,2R,4S)-2-cyano-4-(3,3-dimethylazetidin-1-yl)cyclohexyl]-3-{[4-(trifluoromethyl)phenyl]amino}-1H-pyrazole-4-carboxamidc]"
17,24,"CC1(C)CN([C@@H]2CC[C@H](n3cc(C(N)=O)c(Nc4ccc([C@@H](O)C(F)(F)F)cc4)n3)[C@@H](C#N)C2)C1 (single isomer, unassigned) [Example 28-81, 1-[(1S,2S,4R or 1R,2R,4S)-2-cyano-4-(3,3-dimethylazetidin-1-yl)cyclohexyl]-3-({4-[(1R or 1S)-2,2,2-trifluoro-1-hydroxyethyl]phenyl}amino)-1H-pyrazole-4-carboxamide]"
